According to patent US6509318B1, “TGF-B inhibitors and methods” (The Regents of the University of California, priority 2000, dated 2003):
Non-standard residues stand in square brackets, D forms with d. No end group written: not given here.

Assays:
[1] = test system: mink lung epithelium MV-1-Lu cells; test: DNA synthesis (3H-thymidine incorporation) in MV-1-Lu cells, additions alone; type: cell-based; conditions: for 3H-Thymidine Incorporation 10^3 d.p.m. ± S.D.: 24 h; for (+/−) % change over control when CITA is present / (+/−) % change over control with TGF β-1: vs control (no additions); for decrease of DNA synthesis against the control: CITA alone, all concentrations examined (1, 10, 100 nM)
Text: (§1) Inhibition of TGF β-1 Activity by CITAs: We have used a standardized in vitro assay for TGF β-1 as a test for the biological activity of CITAs. Our test is based on inhibiting the effect of TGF β-1 on a test cell proliferation system. In this assay, mink lung epithelium MV-1-Lu cells are exposed to TGF β-1. […] The decrease in DNA synthesis can be monitored by measuring the incorporation of labeled precursors in DNA. The incorporation of ^3H-thymidine in DNA in MV-1-Lu cells are used as a measure of cell proliferation. […] These concentrations of TGF β-1 were based on the amounts of TGF β-1 found in normal serum and in serum from patients with peritonitis, an inflammatory disease. The normal amount of TGF β-1 in human serum is approximately 2 nM (39 pG/ml). In patients with peritonitis, the amount increases to nearly 10 nM (169-216 pG/ml). The incorporation of ^3H-thymidine in the absence of TGF β-1 served as the control. To test the anti-TGF β-1 activity of CITAs, the cells were exposed to 1 nM, 10 nM, and 100 nM CITA-I, CITA-II, and CITA-III in the absence and in the presence of 5.0 nM and 10.0 nM TGF β-1.
(§2) Details of Experimental Procedures: 10^4 MV-1-Lu were plated in each well of a 12 well plate in 2.0 ml minimum essential medium containing non-essential amino acids (MEM) and 10% fetal bovine serum. After 24 hours, the medium was placed with serum free MEM and the cells were further cultured for two hours before the medium was placed with serum free MEM containing the test additives. After exposure to the test medium for 24 hours, the cells were pulse labeled for two hours with 0.5 μCi (methyl-^3H)-thymidine, (specific activity 60 Ci/mmol). After pulse labeling, the radioactive medium was removed, and the cells were washed 1× with 10% trichloracetic acid (TCA), 2× with 5% TCA, then 2× with phosphate buffered saline containing 50 μg/ml non-radioactive thymidine. The wash solutions were monitored to establish that no further unbound radioactive thymidine remained. The washed cell layers were dissolved in 1 ml 0.1 N NaOH containing 1% sodium dodecyl sulfate. The radioactivity in the solution was measured in a scintillation counter and expressed as disintegrations per minute (d.p.m.). Each test was carried out in quadruplicate, and the data presented as mean±standard deviation.

[2] = test system: TGF β-1; test: Inhibition of TGF β-1 activity by CITAs: reversal of TGF β-1 inhibition of DNA synthesis in MV-1-Lu cells; type: cell-based; conditions: for DNA synthesis restored, relative to the level seen with TGF β-1: MV-1-Lu cells exposed to 5 nM TGF β-1, all concentrations of CITAs; for reversal of the inhibition of DNA synthesis caused by TGF β-1 / 3H-Thymidine Incorporation 10^3 d.p.m. ± S.D.: MV-1-Lu cells; for reversal of the inhibition of DNA synthesis caused by TGF β-1: TGF β-1 5 nM and 10 nM; for 3H-Thymidine Incorporation 10^3 d.p.m. ± S.D.: 24 h; for (+/−) % change over control when CITA is present: vs control (no additions)
Text: as §1, §2

[3] = CITA 1 nM alone, no TGF β-1, MV-1-Lu cells
[4] = CITA 10 nM alone, no TGF β-1, MV-1-Lu cells
[5] = CITA 100 nM alone, no TGF β-1, MV-1-Lu cells
[6] = TGF β-1 5 nM + CITA 1 nM, relative to TGF β-1 5 nM alone
[7] = TGF β-1 5 nM + CITA 10 nM, relative to TGF β-1 5 nM alone
[8] = TGF β-1 5 nM + CITA 100 nM, relative to TGF β-1 5 nM alone
[9] = TGF β-1 10 nM + CITA 1 nM, relative to TGF β-1 10 nM alone
[10] = TGF β-1 10 nM + CITA 10 nM, relative to TGF β-1 10 nM alone
[11] = TGF β-1 10 nM + CITA 100 nM, relative to TGF β-1 10 nM alone

Substance | 3H-Thymidine Incorporation 10^3 d.p.m. ± S.D. [1, 3] | (+/−) % change over control when CITA is present ([1]; CITA 1 nM alone, no TGF β-1) [%] | 3H-Thymidine Incorporation 10^3 d.p.m. ± S.D. [1, 4] | (+/−) % change over control when CITA is present ([1]; CITA 10 nM alone, no TGF β-1) [%] | 3H-Thymidine Incorporation 10^3 d.p.m. ± S.D. [1, 5] | (+/−) % change over control when CITA is present ([1]; CITA 100 nM alone, no TGF β-1) [%] | decrease of DNA synthesis against the control [1] | DNA synthesis restored, relative to the level seen with TGF β-1 [2] [×] | reversal of the inhibition of DNA synthesis caused by TGF β-1 [2] | % Increase over TGF β-1. TGF β-1 + CITA/TGF β-1 × 100 [2, 6] [%] | 3H-Thymidine Incorporation 10^3 d.p.m. ± S.D. ([2]; TGF β-1 5 nM + CITA 1 nM) | (+/−) % change over control when CITA is present ([2]; TGF β-1 5 nM + CITA 1 nM) [%] | % Increase over TGF β-1. TGF β-1 + CITA/TGF β-1 × 100 [2, 7] [%] | 3H-Thymidine Incorporation 10^3 d.p.m. ± S.D. ([2]; TGF β-1 5 nM + CITA 10 nM) | (+/−) % change over control when CITA is present ([2]; TGF β-1 5 nM + CITA 10 nM) [%] | % Increase over TGF β-1. TGF β-1 + CITA/TGF β-1 × 100 [2, 8] [%] | 3H-Thymidine Incorporation 10^3 d.p.m. ± S.D. ([2]; TGF β-1 5 nM + CITA 100 nM) | (+/−) % change over control when CITA is present ([2]; TGF β-1 5 nM + CITA 100 nM) [%] | % Increase over TGF β-1. TGF β-1 + CITA/TGF β-1 × 100 [2, 9] [%] | 3H-Thymidine Incorporation 10^3 d.p.m. ± S.D. ([2]; TGF β-1 10 nM + CITA 1 nM) | other results
Leu-Phe-Ala-Pro-D-Glu-Ala (LFAP[dE]A) [CITA-III] | 44.67 ± 2.26 10^3 d.p.m. | −23 | 47.19 ± 3.00 10^3 d.p.m. | −18 | 44.36 ± 1.76 10^3 d.p.m. | −23 | approximately 20% | 2 | markedly reversed the inhibition of DNA synthesis | 207 | 34.00 ± 0.86 10^3 d.p.m. | −41 | 207 | 34.03 ± 1.11 10^3 d.p.m. | −41 | 184 | 30.23 ± 1.69 10^3 d.p.m. | −48 | 1275 | 24.36 ± 1.14 10^3 d.p.m. | (+/−) % change over control when CITA is present ([2]; TGF β-1 10 nM + CITA 1 nM): −58%; % Increase over TGF β-1. TGF β-1 + CITA/TGF β-1 × 100 [2, 10]: 997%; 3H-Thymidine Incorporation 10^3 d.p.m. ± S.D. ([2]; TGF β-1 10 nM + CITA 10 nM): 19.04 ± 1.47 10^3 d.p.m.; (+/−) % change over control when CITA is present ([2]; TGF β-1 10 nM + CITA 10 nM): −67%; % Increase over TGF β-1. TGF β-1 + CITA/TGF β-1 × 100 [2, 11]: 907%; 3H-Thymidine Incorporation 10^3 d.p.m. ± S.D. ([2]; TGF β-1 10 nM + CITA 100 nM): 17.32 ± 0.27 10^3 d.p.m.; (+/−) % change over control when CITA is present ([2]; TGF β-1 10 nM + CITA 100 nM): −70%
Leu-Ile-Ala-Pro-D-Glu-Ala (LIAP[dE]A) [CITA-I] | 46.46 ± 2.48 10^3 d.p.m. | −19 | 44.93 ± 3.34 10^3 d.p.m. | −21 | 45.10 ± 1.27 10^3 d.p.m. | −22 | approximately 20% | 2 | markedly reversed the inhibition of DNA synthesis | 250 | 41.05 ± 2.04 10^3 d.p.m. | −29 | 194 | 31.88 ± 2.32 10^3 d.p.m. | −45 | 181 | 29.70 ± 2.79 10^3 d.p.m. | −49 | 1113 | 21.26 ± 1.30 10^3 d.p.m. | (+/−) % change over control when CITA is present ([2]; TGF β-1 10 nM + CITA 1 nM): −63%; % Increase over TGF β-1. TGF β-1 + CITA/TGF β-1 × 100 [2, 10]: 1373%; 3H-Thymidine Incorporation 10^3 d.p.m. ± S.D. ([2]; TGF β-1 10 nM + CITA 10 nM): 26.23 ± 2.73 10^3 d.p.m.; (+/−) % change over control when CITA is present ([2]; TGF β-1 10 nM + CITA 10 nM): −55%; % Increase over TGF β-1. TGF β-1 + CITA/TGF β-1 × 100 [2, 11]: 906%; 3H-Thymidine Incorporation 10^3 d.p.m. ± S.D. ([2]; TGF β-1 10 nM + CITA 100 nM): 17.30 ± 2.19 10^3 d.p.m.; (+/−) % change over control when CITA is present ([2]; TGF β-1 10 nM + CITA 100 nM): −70%; increase in DNA synthesis in the inhibited cells ([2]; cells severely inhibited by 10 nM TGF β-1, all concentrations of CITA-I): over 10 fold
TGF β-1: transforming growth factor β-1, growth factor protein used to inhibit DNA synthesis of MV-1-Lu cells |  |  |  |  |  |  |  |  |  |  |  |  |  |  |  |  |  |  |  |  | 3H-Thymidine Incorporation 10^3 d.p.m. ± S.D. ([1]; TGF β-1 5 nM alone, MV-1-Lu cells): 16.43 ± 2.95 10^3 d.p.m.; (+/−) % change over control with TGF β-1 ([1]; TGF β-1 5 nM alone): −72%; decrease of DNA synthesis ([1]; TGF β-1 5.0 nM, MV-1-Lu cells): approximately 70%; 3H-Thymidine Incorporation 10^3 d.p.m. ± S.D. ([1]; TGF β-1 10 nM alone, MV-1-Lu cells): 1.91 ± 0.08 10^3 d.p.m.; (+/−) % change over control with TGF β-1 ([1]; TGF β-1 10 nM alone): −97%; inhibition of DNA synthesis ([1]; TGF β-1 10 nM, MV-1-Lu cells): ~97%
Phe-Ile-Ala-Pro-D-Glu-Ala (FIAP[dE]A) [CITA-II] | 45.10 ± 1.27 10^3 d.p.m. | −22 | 42.03 ± 1.11 10^3 d.p.m. | −27 | 43.08 ± 1.23 10^3 d.p.m. | −25 | approximately 20% | 2 | markedly reversed the inhibition of DNA synthesis | 184 | 31.04 ± 1.07 10^3 d.p.m. | −29 | 169 | 27.75 ± 1.50 10^3 d.p.m. | −45 | 207 | 34.00 ± 0.86 10^3 d.p.m. | −49 | 970 | 18.51 ± 1.23 10^3 d.p.m. | (+/−) % change over control when CITA is present ([2]; TGF β-1 10 nM + CITA 1 nM): −63%; % Increase over TGF β-1. TGF β-1 + CITA/TGF β-1 × 100 [2, 10]: 1084%; 3H-Thymidine Incorporation 10^3 d.p.m. ± S.D. ([2]; TGF β-1 10 nM + CITA 10 nM): 20.70 ± 2.63 10^3 d.p.m.; (+/−) % change over control when CITA is present ([2]; TGF β-1 10 nM + CITA 10 nM): −55%; % Increase over TGF β-1. TGF β-1 + CITA/TGF β-1 × 100 [2, 11]: 981%; 3H-Thymidine Incorporation 10^3 d.p.m. ± S.D. ([2]; TGF β-1 10 nM + CITA 100 nM): 18.73 ± 1.67 10^3 d.p.m.; (+/−) % change over control when CITA is present ([2]; TGF β-1 10 nM + CITA 100 nM): −70%
